Measured values taken from paper PMC9738591, “N-[1,3-Dialkyl(aryl)-2-oxoimidazolidin-4-ylidene]-aryl(alkyl)sulphonamides as Novel Selective Human Cannabinoid Type 2 Receptor (hCB2R) Ligands; Insights into the Mechanism of Receptor Activation/Deactivation” (Molecules, 2022).

What was measured:
[1] = Maximum concentration reached in the functional assay buffer, by UV absorption and HPLC; assay type: physicochemical; details: measured by UV absorption and HPLC
Method: (§1) Only a small displacement was observed and only at the highest concentration (Figure 8). We reasoned that the discrepancy with the predictions was mainly due to the chemical–physical features of the molecule and that the lack of antagonism was caused by issues related to compound solubility in the buffer used for the assay. Indeed, the maximum concentration of 12b that could be reached in the buffer solution used for the functional assay, measured by UV absorption as well as by HPLC, was 2.3 µM.

[2] = target: T1, human CB2R (Homo sapiens, UniProt P34972); assay: Competition binding assay, displacement of [3H]-CP-55,940 from membranes of HEK-293 cells overexpressing CB2R; set-up: purchased Perkin-Elmer, Italy; host or cells: HEK-293 cells (membranes)
Method: (§2) The binding affinities (Ki values) of the compounds for human recombinant hCB1R and hCB2R were determined as previously described, using SR144528 as a reference compound [30], and are reported in Table 1.
(§3) Compound affinity for CB1R and CB2R was measured as previously reported. […] Competition curves were performed by displacing [^3H]-CP-55 940 with increasing concentrations of compounds (0.1 nM–10 or 25 μM). […] All compounds were tested following the procedure described by the manufacturer (Perkin-Elmer, Italy). Displacement curves were generated by incubating drugs with [^3H]-CP-55 940 for 90 min at 30 °C. Ki values were calculated by applying the Cheng−Prusoff equation to the IC50 values for the displacement of the bound radioligand by increasing concentrations of the test compound. Data represent the mean values of three independent experiments performed in duplicate and are expressed as the average of Ki (µM) ± standard deviation. Data were analyzed using PRISM.9.3 software (GraphPad Software Inc, San Diego, CA, USA).

[3] = target: T2, human recombinant CB1R (Homo sapiens, UniProt P21554); assay: Competition binding assay, displacement of [3H]-CP-55,940 from membranes of HEK-293 cells overexpressing CB1R
T2 construct: purchased Perkin-Elmer, Italy; host or cells: HEK-293 cells (membranes)
Method: as §2, §3

[4] = target: T1, human CB2R; assay: cAMP Hunter assay in the presence of JWH-133 agonist challenge (antagonist mode); assay type: cell-based; details: JWH-133 4 µM (EC80) agonist challenge
Method: as §1

[5] = target: T1, human CB2R; assay: cAMP Hunter assay, effect on NKH-477-induced cAMP levels (agonist mode); assay type: cell-based; details: CHO-K1 cells overexpressing human CB2R, compound alone
Method: The above-mentioned compounds were tested for their functional activity.
Gi-coupled cAMP modulation was measured following the manufacturer’s protocol (Eurofins, Fremont, CA, USA), as previously reported. Briefly, CHO-K1 cells overexpressing the human CB2R were plated into a 96-well plate (10,000 cells/well) and incubated overnight at 37 °C, 5% CO2. Media was aspirated and replaced with 30 μL of assay buffer. Cells were incubated for 30 min at 37 °C with 15 μL of 3× dose−response solutions of samples prepared in the presence of a cell assay buffer containing 3× of 25 μM NKH-477 solution to stimulate adenylate cyclase and enhance basal cAMP levels. For those compounds not showing a decrease in cAMP levels, the effect upon receptor activation in the presence of the JWH-133 selective agonist was investigated. Cells were pre-incubated with samples (15 min at 37 °C at 6× the final desired concentration), followed by 30 min incubation with the JWH-133 agonist challenge at the EC80 concentration (EC80 = 4 μM, previously determined in separate experiments) in the presence of NKH-477 to stimulate adenylate cyclase and enhance cAMP levels. Cell lysis and cAMP detection were performed as per the manufacturer’s protocol. Luminescence measurements were performed using a GloMax Multi Detection System (Promega, Italy). Data are reported as the means ± SEM of three independent experiments conducted in triplicate and were normalized considering the NKH-477 stimulus alone as 100% of the response. Data were analyzed using PRISM.9.3 software (GraphPad Software Inc, San Diego, CA, USA).
Figure 7 Concentration-response curves of compounds in the cAMP Hunter assay. Curves show the effect of increasing concentrations of compounds on NKH-477-induced cAMP levels in stable CHO cells expressing the human CB2. Data are reported as the means ± SEM of three independent experiments conducted in triplicate, normalized to the maximal and minimal responses.

T1 sequence (P34972 whole entry): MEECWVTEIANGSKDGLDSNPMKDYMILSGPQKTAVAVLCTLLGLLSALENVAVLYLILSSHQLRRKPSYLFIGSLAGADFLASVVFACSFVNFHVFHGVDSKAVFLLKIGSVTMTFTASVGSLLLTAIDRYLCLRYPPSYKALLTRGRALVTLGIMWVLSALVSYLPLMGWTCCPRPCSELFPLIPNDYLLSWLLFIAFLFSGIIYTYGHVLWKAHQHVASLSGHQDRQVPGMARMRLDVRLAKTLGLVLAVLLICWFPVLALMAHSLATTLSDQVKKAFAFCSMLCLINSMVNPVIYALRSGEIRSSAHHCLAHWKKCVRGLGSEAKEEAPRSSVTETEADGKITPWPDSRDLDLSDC
T2 sequence (P21554 whole entry): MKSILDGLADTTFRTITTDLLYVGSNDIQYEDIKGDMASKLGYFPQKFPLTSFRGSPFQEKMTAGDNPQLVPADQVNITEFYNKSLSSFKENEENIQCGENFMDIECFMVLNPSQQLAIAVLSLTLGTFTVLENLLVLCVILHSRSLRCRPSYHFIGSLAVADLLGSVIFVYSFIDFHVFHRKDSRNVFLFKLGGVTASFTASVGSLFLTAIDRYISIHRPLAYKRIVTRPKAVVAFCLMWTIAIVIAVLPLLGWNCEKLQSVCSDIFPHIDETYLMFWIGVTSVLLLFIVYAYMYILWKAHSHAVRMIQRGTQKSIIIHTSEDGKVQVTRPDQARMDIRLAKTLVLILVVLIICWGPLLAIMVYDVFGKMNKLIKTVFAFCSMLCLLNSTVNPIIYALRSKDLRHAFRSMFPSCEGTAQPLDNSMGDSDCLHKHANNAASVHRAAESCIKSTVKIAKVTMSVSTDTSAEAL

O=C1N(CC2CC2)C(=NS(=O)(=O)c2ccccc2)CN1C12CC3CC(CC(C3)C1)C2 [Compound 12b, N-[1-Adamant-1-yl-3-cyclopropylmethyl-2-oxoimidazolidin-4-ylidene]benzenesulfonamide]
Maximum concentration that could be reached in the buffer solution used for the functional assay [1]: 2.3 µM | melting point: 198 to 198.5 °C | Ki ([2]; [3H]-CP-55,940 displacement, HEK-293 membranes, 90 min at 30 °C, Cheng-Prusoff, read-out: Ki hCB2R (µM ± S.E.)): 0.26 ± 0.03 µM | inhibition at 25 µM ([2]; max conc. tested 25 µM, read-out: % Displacement/ Max Conc. Tested, hCB2R (converted)): 84.5% | Ki ([3]; [3H]-CP-55,940 displacement, HEK-293 membranes, 90 min at 30 °C, Cheng-Prusoff, read-out: Ki hCB1R (µM ± S.E.)): > 10 µM | inhibition at 25 µM ([3]; read-out: % Displacement/ Max. Conc. Tested, hCB1R): 29.5% | Antagonism of JWH-133-induced inhibition of NKH-477-induced cAMP formation [4]: did not antagonize the agonist challenge | Effect on NKH-477-induced cAMP levels (functional behavior) [5]: did not alter the level of cAMP
